# According to ChEMBL document CHEMBL1201862, “PubChem BioAssay data set” (2004):
# “And” between values parts separate entries of the source, which are not always exact repeats. Identical values can stand only once.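 Following 48 hours of exposure in 96-well plates, responses at five concentrations were used to interpolate endpoints linearly. GI50 is the concentration that inhibits growth by half.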 The source made the active and inactive calls. Cut-off read from the data, not from the text of the source: active = GI50 up to about 1.1 µM and inactive = higher.
# Legend:
# Test in all cases: DTP human tumour cell line panel, 48 h
# 786-0 = tested on: 786-0
# A549 = tested on: A549
# CCRF-CEM = tested on: CCRF-CEM
# DU-145 = tested on: DU-145
# HCT-15 = tested on: HCT-15
# HOP-62 = tested on: HOP-62
# KM12 = tested on: KM12
# LOX IMVI = tested on: LOX IMVI
# M14 = tested on: M14
# MDA-MB-231 = tested on: MDA-MB-231
# MDA-MB-435 = tested on: MDA-MB-435
# NCI-H23 = tested on: NCI-H23
# NCI/ADR-RES = tested on: NCI/ADR-RES
# OVCAR-4 = tested on: OVCAR-4
# SK-MEL-2 = tested on: SK-MEL-2
# SN12C = tested on: SN12C
# SNB-19 = tested on: SNB-19
# UACC-257 = tested on: UACC-257
# NCI-H522 = tested on: NCI-H522
# RPMI-8226 = tested on: RPMI-8226
Structure (SMILES),GI50 (786-0),GI50 (A549),GI50 (CCRF-CEM),GI50 (DU-145),GI50 (HCT-15),GI50 (HOP-62),GI50 (KM12),GI50 (LOX IMVI),GI50 (M14),GI50 (MDA-MB-231),GI50 (MDA-MB-435),GI50 (NCI-H23),GI50 (NCI/ADR-RES),GI50 (OVCAR-4),GI50 (SK-MEL-2),GI50 (SN12C),GI50 (SNB-19),GI50 (UACC-257),GI50 (NCI-H522),GI50 (RPMI-8226)
C=C(C(=O)O)[C@@H]1C[C@@H]2O[C@H]1[C@@H](O)[C@@H](C)CCCC(C)=CCC[C@@]2(C)O,56.6 µM (inactive) and > 69.5 µM (inactive),> 100 µM (inactive),33.3 µM (inactive) and > 46.8 µM (inactive),> 100 µM (inactive),> 100 µM and 78.3 µM,> 100 µM (inactive),> 100 µM (inactive),41.3 µM (inactive) and > 47.2 µM (inactive),> 100 µM (inactive) and > 77.4 µM (inactive),> 100 µM (inactive),71.8 µM (inactive) and > 81.3 µM (inactive),> 100 µM (inactive),> 100 µM (inactive),> 100 µM (inactive),> 100 µM (inactive),> 100 µM (inactive),> 100 µM (inactive),> 100 µM (inactive),–,–
CN(C)c1ccc(C2CC(c3ccc4ccccc4c3O)=NN2c2ccc([N+](=O)[O-])cc2[N+](=O)[O-])cc1 (stereo unspecified),> 100 µM (inactive),32.3 µM (inactive),22.3 µM (inactive),64.9 µM (inactive),61.5 µM,75.5 µM (inactive),24.4 µM (inactive),–,63 µM (inactive),22 µM (inactive),17.5 µM (inactive),17 µM (inactive),43.5 µM (inactive),> 100 µM (inactive),25.5 µM (inactive),50.7 µM (inactive),–,58.5 µM (inactive),21 µM (inactive),–
O=C(O)c1ccc(OCc2nc3cc(C(F)(F)F)ccc3nc2-c2ccccc2)cc1,98.4 µM (inactive),39.2 µM (inactive),42.8 µM (inactive),60.1 µM (inactive),39.1 µM,66.2 µM (inactive),30.1 µM (inactive),40 µM (inactive),80.4 µM (inactive),56.4 µM (inactive),55.2 µM (inactive),36.8 µM (inactive),44.6 µM (inactive),–,37.9 µM (inactive),60.4 µM (inactive),73.8 µM (inactive),78.7 µM (inactive),74.6 µM (inactive),–
O=C1Nc2nnc(S)n2NC12c1ccccc1-c1ccccc12,> 100 µM (inactive),> 100 µM (inactive),–,> 100 µM (inactive),97.3 µM,> 100 µM (inactive),–,58.9 µM (inactive),52 µM (inactive),> 100 µM (inactive),16.8 µM (inactive),> 100 µM (inactive),> 100 µM (inactive),19.1 µM (inactive),> 100 µM (inactive),> 100 µM (inactive),> 100 µM (inactive),17.2 µM (inactive),> 100 µM (inactive),–
CC(=O)OCC1OC(N2C(=O)CC(N)=Nc3ccccc32)C(OC(C)=O)C(OC(C)=O)C1OC(C)=O (stereo unspecified),> 100 µM (inactive),> 100 µM (inactive),> 100 µM (inactive),63.4 µM (inactive),44.8 µM,81.7 µM (inactive),45.2 µM (inactive),37.5 µM (inactive),38.6 µM (inactive),> 100 µM (inactive),30.6 µM (inactive),43.2 µM (inactive),45.3 µM (inactive),57.8 µM (inactive),48.4 µM (inactive),58.2 µM (inactive),> 100 µM (inactive),32.4 µM (inactive),–,14.4 µM (inactive)
CC(=O)C1C(=O)C(=O)N(c2cccc([N+](=O)[O-])c2)C1=O (stereo unspecified),> 100 µM (inactive),> 100 µM (inactive),> 100 µM (inactive),> 100 µM (inactive),> 100 µM,> 100 µM (inactive),> 100 µM (inactive),> 100 µM (inactive),> 100 µM (inactive),> 100 µM (inactive),> 100 µM (inactive),> 100 µM (inactive),> 100 µM (inactive),> 100 µM (inactive),> 100 µM (inactive),> 100 µM (inactive),> 100 µM (inactive),> 100 µM (inactive),> 100 µM (inactive),–
C=C(C)C1CC/C(C)=C/CCC2(C)OC2CC/C(CO)=C\C1O (stereo unspecified),> 100 µM (inactive),> 100 µM (inactive),19.1 µM (inactive),> 100 µM (inactive),> 100 µM,> 100 µM (inactive),> 100 µM (inactive),> 100 µM (inactive),49.3 µM (inactive),> 100 µM (inactive),60 µM (inactive),> 100 µM (inactive),> 100 µM (inactive),> 100 µM (inactive),> 100 µM (inactive),> 100 µM (inactive),> 100 µM (inactive),> 100 µM (inactive),–,42.4 µM (inactive)
CCCCC1=C(C(=O)N2CCOCC2)C2(OCCO2)C1Cl (stereo unspecified),36.4 µM (inactive),20.6 µM (inactive),> 100 µM (inactive),44.5 µM (inactive),26.9 µM,35.2 µM (inactive),20.7 µM (inactive),28.2 µM (inactive),16.9 µM (inactive),64 µM (inactive),21.7 µM (inactive),25.5 µM (inactive),45.9 µM (inactive),28.8 µM (inactive),19.8 µM (inactive),22.2 µM (inactive),32.3 µM (inactive),24.3 µM (inactive),27.1 µM (inactive),–
C=CO/N=[N+](\[O-])N(CC)CC,> 100 µM (inactive),> 100 µM (inactive),> 100 µM (inactive),> 100 µM (inactive),> 100 µM,> 100 µM (inactive),> 100 µM (inactive),> 100 µM (inactive),> 100 µM (inactive),> 100 µM (inactive),> 100 µM (inactive),> 100 µM (inactive),> 100 µM (inactive),> 100 µM (inactive),–,> 100 µM (inactive),> 100 µM (inactive),> 100 µM (inactive),> 100 µM (inactive),> 100 µM (inactive)
Cc1n[nH]c(=O)n1C1CCCC1,> 100 µM (inactive),> 100 µM (inactive),> 100 µM (inactive),> 100 µM (inactive),> 100 µM,> 100 µM (inactive),> 100 µM (inactive),> 100 µM (inactive),> 100 µM (inactive),> 100 µM (inactive),> 100 µM (inactive),> 100 µM (inactive),> 100 µM (inactive),> 100 µM (inactive),–,> 100 µM (inactive),> 100 µM (inactive),> 100 µM (inactive),> 100 µM (inactive),> 100 µM (inactive)
CCOC(=O)NC(C(F)(F)F)(C(F)(F)F)P(=O)(OCC)OCC,45.2 µM (inactive),–,2.71 µM (inactive),> 100 µM (inactive),28.8 µM,78.9 µM (inactive),43.9 µM (inactive),12.4 µM (inactive),25.9 µM (inactive),> 100 µM (inactive),44.1 µM (inactive),34.5 µM (inactive),36.7 µM (inactive),18.7 µM (inactive),–,32.8 µM (inactive),36.1 µM (inactive),–,17.4 µM (inactive),24 µM (inactive)
